Columns and labels:
Whole human blood = experiment: Hemolysis study; assay type: cell-based
Experimental: Briefly, human whole blood was collected from a single donor (K2EDTA anticoagulant). The donor blood was analyzed for hemoglobin content in triplicate using an Advia 120 hematology analyzer. The dynamic mixing of drug infusate in human whole blood was simulated in this in vitro study by incubating the diluted test, reference and placebo items at a blood:formulation ratio of 1:0.75, corresponding to a final bivalirudin concentration of 2.14 mg/mL. Blood was mixed with either bivalirudin for injection as described herein, Angiomax®, a bivalirudin placebo, or 0.9% saline. The mixture as incubated at 37° C. (±5° C.) for 30 minutes. Negative controls containing only blood (whole blood control) or blood mixed with 0.9% saline at a blood:saline ratio of 1:0.75 (0.9% NaCl control) were also prepared. A positive control containing blood mixed 1:1 with 1% saponin was also prepared. All control tubes were incubated at 37° C. (±5° C.) for 30 minutes. […] During the incubation tubes containing the test and reference item mixed with saline were prepared to check if the test or reference item interfered with the absorbance readings. […] The percent hemolysis of each sample was calculated based on the hemoglobin content of the supernatant, expressed as a percentage of hemoglobin content of the donor sample, after correcting for dilution and interference from the sample, if any.

[1] = Toxicokinetics of bivalirudin in satellite animals of the rat study (plasma concentrations); details: both sexes, Sprague-Dawley, in vivo, iv, 24 hours after termination of dosing, 7 out of 23 samples, all others below 50 ng/mL, read-out: plasma bivalirudin concentration at the 24-hour timepoint
Experimental: The infusion rate was 2.5 mL/kg/h for all groups. A separate set of satellite animals (6/sex/group) were administered the same set of materials and used for evaluating the toxicokinetics (TK) of bivalirudin at 5 minutes and 24 hours after termination of dosing (3 animals/sex/group/timepoint). See Table 16b for group allocation. All animals were sacrificed on Day 16, one day following the end of the 14-day infusion.
Mean plasma concentrations of bivalirudin at C5 were similar in males treated with the high-dose (250 mg/kg/day) of MAIA Bivalirudin Injection or Sandoz Bivalirudin, and only slightly lower (approximately 20% lower) in the female treated with MAIA Bivalirudin than in the females treated with Sandoz Bivalirudin. However, it must be noted that data are available from just one female for the MAIA product, due to premature deaths or inability to collect blood.

Row | Compound | % Hemolysis (Whole human blood) | % hemolysis (positive control) (Whole human blood) | level at 24 h [1]
1 | saponin | 100.0 ± 0.8% | 100% | 
2 | CC[C@H](C)[C@H](NC(=O)[C@H](CCC(=O)O)NC(=O)[C@H](CCC(=O)O)NC(=O)[C@H](Cc1ccccc1)NC(=O)[C@H](CC(=O)O)NC(=O)CNC(=O)[C@H](CC(N)=O)NC(=O)CNC(=O)CNC(=O)CNC(=O)CNC(=O)[C@@H]1CCCN1C(=O)[C@H](CCCNC(=N)N)NC(=O)[C@@H]1CCCN1C(=O)[C@H](N)Cc1ccccc1)C(=O)N1CCC[C@H]1C(=O)N[C@@H](CCC(=O)O)C(=O)N[C@@H](CCC(=O)O)C(=O)N[C@@H](Cc1ccc(O)cc1)C(=O)N[C@@H](CC(C)C)C(=O)O [bivalirudin] |  |  | 50.5 to 159 ng/mL
